Results taken from patent US12421229B2, “Hydropyrido[1,2-α]pyrazine compounds for the treatment of autoimmune disease” (Hoffmann-La Roche Inc., priority 2019, dated 2025).

Target: T1, human TLR7 (Homo sapiens, UniProt Q9NYK1)
T1 construct: host or cells: HEK293 (HEK-Blue hTLR7)
T1 sequence (Q9NYK1 27-1049): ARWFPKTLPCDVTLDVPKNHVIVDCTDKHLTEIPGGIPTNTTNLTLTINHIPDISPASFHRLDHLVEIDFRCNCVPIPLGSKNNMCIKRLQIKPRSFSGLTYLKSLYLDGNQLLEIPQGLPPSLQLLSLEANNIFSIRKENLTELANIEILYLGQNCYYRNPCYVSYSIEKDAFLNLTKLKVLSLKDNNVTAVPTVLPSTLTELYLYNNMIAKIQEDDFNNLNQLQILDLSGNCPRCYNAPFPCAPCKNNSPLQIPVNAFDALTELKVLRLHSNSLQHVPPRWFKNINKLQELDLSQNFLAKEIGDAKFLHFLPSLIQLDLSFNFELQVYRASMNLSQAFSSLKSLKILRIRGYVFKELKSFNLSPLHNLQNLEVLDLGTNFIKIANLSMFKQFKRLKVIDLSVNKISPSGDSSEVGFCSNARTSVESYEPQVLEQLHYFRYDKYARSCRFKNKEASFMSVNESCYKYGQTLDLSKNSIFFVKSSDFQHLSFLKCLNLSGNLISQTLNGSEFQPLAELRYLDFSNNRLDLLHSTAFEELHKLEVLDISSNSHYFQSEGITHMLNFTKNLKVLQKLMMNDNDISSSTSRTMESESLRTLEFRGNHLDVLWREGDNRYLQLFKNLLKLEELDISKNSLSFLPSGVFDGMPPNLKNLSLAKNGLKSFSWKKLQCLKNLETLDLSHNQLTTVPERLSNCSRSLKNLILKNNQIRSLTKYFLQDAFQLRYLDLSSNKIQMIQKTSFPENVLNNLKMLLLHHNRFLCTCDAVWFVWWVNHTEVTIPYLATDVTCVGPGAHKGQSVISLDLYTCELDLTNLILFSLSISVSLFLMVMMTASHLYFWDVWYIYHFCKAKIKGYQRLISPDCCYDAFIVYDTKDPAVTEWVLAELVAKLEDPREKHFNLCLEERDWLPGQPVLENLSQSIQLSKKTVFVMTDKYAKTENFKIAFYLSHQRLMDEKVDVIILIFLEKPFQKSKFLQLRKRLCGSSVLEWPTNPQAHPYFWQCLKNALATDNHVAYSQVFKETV
Experiment: HEK293-Blue-hTLR-7 cells assay
Format: cell-based
Conditions: HEK293-Blue-hTLR7 cells, R848 stimulation, 20 hrs, SEAP reporter; read-out: HEK/hTLR7 IC50
Text: A stable HEK293-Blue-hTLR-7 cell line was purchased from InvivoGen (Cat. #: hkb-htlr7, San Diego, California, USA). These cells were originally designed for studying the stimulation of human TLR7 by monitoring the activation of NF-κB. A SEAP (secreted embryonic alkaline phosphatase) reporter gene was placed under the control of the IFN-β minimal promoter fused to five NF-κB and AP-1-binding sites. The SEAP was induced by activating NF-κB and AP-1 via stimulating HEK-Blue hTLR7 cells with TLR7 ligands. Therefore the reporter expression was declined by TLR7 antagonist under the stimulation of a ligand, such as R848 (Resiquimod), for incubation of 20 hrs. The cell culture supernatant SEAP reporter activity was determined using QUANTI-Blue™ kit (Cat. #: rep-qb1, Invivogen, San Diego, Ca, USA) at a wavelength of 640 nm, a detection medium that turns purple or blue in the presence of alkaline phosphatase.
HEK293-Blue-hTLR7 cells were incubated at a density of 250,000˜450,000 cells/mL in a volume of 170 μL in a 96-well plate in Dulbecco's Modified Eagle's medium (DMEM) containing 4.5 g/L glucose, 50 U/mL penicillin, […], […], 2 mM L-glutamine, 10% (v/v) heat-inactivated fetal bovine serum with addition of 20 μL test compound in a serial dilution in the presence of final DMSO at 1% and 10 μL of 20 uM R848 in above DMEM, perform incubation under 37° C. in a CO2 incubator for 20 hrs. Then 20 μL of the supernatant from each well was incubated with 180 μL Quanti-blue substrate solution at 37° C. for 2 hrs and the absorbance was read at 620˜655 nm using a spectrophotometer. The signaling pathway that TLR7 activation leads to downstream NF-κB activation has been widely accepted, and therefore similar reporter assay was modified for evaluating TLR7 antagonist.

SMILES	IC50
[2H]c1ccc2c(N3C[C@@H]4C[C@H](Nc5ccc(C[C@@H]6CNCCO6)cc5)CCN4[C@H](C)C3)ccc(C#N)c2n1 [Example 22, 5-[(4R,8R,9aS)-4-methyl-8-[4-[[(2R)-morpholin-2-yl]methyl]anilino]-1,3,4,6,7,8,9,9a-octahydropyrido[1,2-a]pyrazin-2-yl]-2-deuterio-quinoline-8-carbonitrile]	0.044 µM
C[C@@H]1CN(c2ccc(C#N)c3ncccc23)C[C@@H]2C[C@H](c3ccc(N4CCOC[C@@H](N)C4)nc3)CCN21 [Example 23, 5-[(4R,8R,9aS)-8[6-[(6S)-6-amino-1,4-oxazepan-4-yl]-3-pyridyl]-4-methyl-1,3,4,6,7,8,9,9a-octahydropyrido[1,2-a]pyrazin-2-yl]quinoline-8-carbonitrile]	0.021 µM
C[C@@H]1CN(c2ccc(C#N)c3ncccc23)C[C@@H]2C[C@@H](c3ccc(C4CNCCO4)cc3)CCN21 (stereo partly drawn) [Example 24, 5-[(4R,8S,9aS)-4-methyl-8-(4-morpholin-2-ylphenyl)-1,3,4,6,7,8,9,9a-octahydropyrido[1,2-a]pyrazin-2-yl]quinoline-8-carbonitrile]	0.004 µM
C[C@@H]1CN(c2ccc(C#N)c3ncccc23)C[C@@H]2C[C@@H](c3ccc(CC4CNCCO4)cc3)CCN21 (stereo partly drawn) [Example 26, 5-[(4R,8S,9aS)-4-methyl-8-[4-(morpholin-2-ylmethyl)phenyl]-1,3,4,6,7,8,9,9a-octahydropyrido[1,2-a]pyrazin-2-yl]quinoline-8-carbonitrile]	0.03 µM
C[C@@H]1CN(c2ccc(C#N)c3ncccc23)C[C@@H]2C[C@H](c3ccc([C@@H]4CNCCO4)cc3)CCN21 [Example 27, 5-[(4R,8R,9aS)-4-methyl-8-[4-[(2R)-morpholin-2-yl]phenyl]-1,3,4,6,7,8,9,9a-octahydropyrido[1,2-a]pyrazin-2-yl]quinoline-8-carbonitrile]	0.004 µM
CO[C@H]1CN(c2ccc(O[C@H]3CCN4[C@@H](C3)CN(c3ccc(C#N)c5ncccc35)C[C@H]4C)cn2)C[C@H]1N [Example 28, 5-[(4R,8S,9aS)-8-[[6-[(3R,4S)-3-amino-4-methoxy-pyrrolidin-1-yl]-3-pyridyl]oxy]-4-methyl-1,3,4,6,7,8,9,9a-octahydropyrido[1,2-a]pyrazin-2-yl]quinoline-8-carbonitrile]	0.047 µM
C[C@@H]1CN(c2ccc(C#N)c3ncccc23)C[C@@H]2C[C@@H](Oc3cncc(N4CCNCC4)c3)CCN21 [Example 29, 5-[(4R,8S,9aS)-4-methyl-8-[(5-piperazin-1-yl-3-pyridyl)oxy]-1,3,4,6,7,8,9,9a-octahydropyrido[1,2-a]pyrazin-2-yl]quinoline-8-carbonitrile]	0.049 µM
CO[C@@H]1CN(c2ccc(C3CN([C@@H]4CCN5[C@@H](C4)CN(c4ccc(C#N)c6ncccc46)C[C@H]5C)C3)cc2)C[C@H]1N [Example 30, 5-[(4R,8R,9aS)-8-[3-[4-[(3R,4R)-3-amino-4-methoxy-pyrrolidin-1-yl]phenyl]azetidin-1-yl]-4-methyl-1,3,4,6,7,8,9,9a-octahydropyrido[1,2-a]pyrazin-2-yl]quinoline-8-carbonitrile]	0.041 µM
CO[C@H]1CN(c2ccc(C3CN([C@@H]4CCN5[C@@H](C4)CN(c4ccc(C#N)c6ncccc46)C[C@H]5C)C3)cc2)C[C@H]1N [Example 32, 5-[(4R,8R,9aS)-8-[3-[4-[(3R,4S)-3-amino-4-methoxy-pyrrolidin-1-yl]phenyl]azetidin-1-yl]-4-methyl-1,3,4,6,7,8,9,9a-octahydropyrido[1,2-a]pyrazin-2-yl]quinoline-8-carbonitrile]	0.048 µM
[2H]c1ccc2c(N3C[C@@H]4C[C@H](Nc5ccc(C[C@H]6CNCCO6)cc5)CCN4[C@H](C)C3)ccc(C#N)c2n1 [Example 34, 5-[(4R,8R,9aS)-4-methyl-8-[4-[[(2S)-morpholin-2-yl]methyl]anilino]-1,3,4,6,7,8,9,9a-octahydropyrido[1,2-a]pyrazin-2-yl]-2-deuterio-quinoline-8-carbonitrile]	0.047 µM
[2H]c1ccc2c(N3C[C@@H]4C[C@@H](N5CC(c6ccc(N7C[C@@H](N)[C@H](OC)C7)cc6)C5)CCN4[C@H](C)C3)ccc(C#N)c2n1 [Example 36]	0.03 µM
[2H]c1ccc2c(N3C[C@@H]4C[C@H](N5CCN(c6ccncc6)CC5)CCN4[C@H](C)C3)ccc(C#N)c2n1 [Example 37, 5-[(4R,8R,9aS)-4-methyl-8-[4-(4-pyridyl)piperazin-1-yl]-1,3,4,6,7,8,9,9a-octahydropyrido[1,2-a]pyrazin-2-yl]-2-deuterio-quinoline-8-carbonitrile]	0.011 µM
